What all share (assay type): cell-based, human
Data set [1] concerns MCF-7 cells. As to the kind of experiment: CCK-8 viability assay after X-ray irradiation. The conditions noted are these: MCF-7 irradiated with 3 Gy, all concentrations tested, compared to DMSO control, CCK-8 48 h post irradiation. Here is the method: The cytoxicity assay was performed with Cell Counting Kit-8 (#96992, Sigma-Aldrich) according to the manufacturer’s instructions. 100 µL of MCF-7 T47D or MDA-MB231 cell suspension (5000 cells/well) was dispensed in a 96-well plate. After 24 h, inhibitor or DMSO was added in growth medium and then cells were irradiated. 48 h post irradiation, 10 μL of CCK-8 solution was added to each well of the plate and incubated again for 1 h. Incubate the plate for 1–4 h in the incubator. The absorbance at 450 nm was read using a VICTOR2 1420 reader (Perkin Elmer Wallac, Waltham, MA, USA). The absorbance at 450 nm of each sample, which is proportional to the number of viable cells, was first normalized on the same value of absorbance of blank (a well with only growth medium). The absorbance of each dose of radiation (sham, 0.3, 1 and 3 Gy) was normalized to the corresponding DMSO control and then, for each concentration of inhibitors, these values were normalized to the corresponding sham control.
Background: Tetrazolium dyes change colour on reduction, which living cells bring about.

The subject of data set [2] is MCF-7 cells. Description: Flow-cytometry analysis of cell cycle distribution. The conditions noted are these: for cells in G2/M / subG1 cells (possible apoptotic fraction): MCF-7, 30 μM. As for the experimental part:
Flow-cytometry analysis of DNA content was carried out using an EPICS xl flow-cytometer (Beckman-Coulter, Brea, CA, USA). DMSO and inhibitor treated MCF-7 cells were trypsinized, pelleted, washed with PBS and finally resuspended in PBS containing 0.1% Triton-X-100 (#A1388.1000, AppliChem, Darmstadt, Germany) and 40 μg/mL propidium iodide (#P-4170, Sigma). After 20 min incubation at 37 °C the samples were analyzed. 10,000 events were acquired for each sample. Acquired data were analyzed using the WinMDI software by Joe Trotter, available at http://facs.scripps.edu.

Data set [3] relates to MCF-7 cells. As to the kind of experiment: Clonogenic assay after X-ray irradiation. The conditions noted are these: for proliferative capacity (clonogenic survival): MCF-7, 10 μM, compared to DMSO control. Here is the method: One hour after treatment with inhibitors, cells were exposed to X-ray using a MLG 300/6-D apparatus (Gilardoni, Lecco, Italy) set to […] and 6 mA, in order to produce an equivalent absorbed dose of 1cGy/s. Afterwards, cells were harvested, counted and then diluted in inhibitor containing growth medium. Appropriate cell numbers were seeded in quadruplicate according to the doubling time of the cell line and to radiation dose. 24 h after this seeding, the medium with inhibitor was replaced with fresh DMEM and cells were then incubated for 14 days (enough time to allow at least six cell divisions). After this period of growth, cells were washed twice with PBS and then fixed and stained with a suitable volume of a solution made of 0.3% Methylene Blue and 80% Ethanol for 30 min at room temperature. After washing cells twice with ddH2O, plates were pictured with ChemiDoc XRS+ Imaging System (Bio-Rad) in colorimetric mode. Colonies were detected using Fiji software, with the “Find maxima” function setting a background noise threshold of 3000. Radiation-dose response curveS to X-ray for DMSO and inhibitor samples were calculated using surviving fraction. Plating efficiency and surviving fraction were calculated as follows:Plating efficiency = number of colonies counted/number of cells plated Surviving fraction = Plating efficiency/plating efficiency of shame sample

The subject of data set [4] is AhR pathway in MCF-7 cells. Description: Real Time PCR of CYP1A1 and AHRR transcripts (AhR pathway). Particulars: MCF-7, 10 μM. Here is the method:
Total RNA from treated cells was isolated using miRNeasy® mini kit (#217004, Qiagen, Venlo, Netherlands), according to producer’s protocol guidelines. One μg of total RNA was reverse-transcribed using QuantiTect® Reverse Transcription Kit (#205311, Qiagen), according to producer’s protocol guidelines (Qiagen).
Relative quantification of gene expression was performed with the 7500 Real Time PCR System (Thermo Fisher Scientific (Applied Biosystems), Waltham, MA, USA) using SensiFAST™ SYBR® Lo-ROX Kit (#BIO 94020, Bioline, London, UK). The relative amount of mRNA expression was determined by means of ΔΔCt method, using GAPDH as internal control. Primers were designed using www.ncbi.nlm.nih.gov/tools/primer-blast/ and purchased from Sigma-Aldrich. The following oligos were used: • -3′ CYP1A1 mRNA: • - Fw: 5′- […]-3′ • CYP1A1 mRNA: • - Rv: 5′- […]-3′ • AHRR mRNA: • - Fw: 5′- […]-3′ • AHRR mRNA: • - Rv: 5′- […]-3′-3′ • GAPDH mRNA: • - Fw: 5′- […]-3′ • GAPDH mRNA: • - Rv: 5′- CGTTGTCATACCAGGAAAT-3′

In the case of `CCOC(=O)c1cccn1C(=O)c1cccc(NS(=O)(=O)c2ccc(OC)cc2)c1` [RS3195], the “reduction of viable cells” value in the data set with MCF-7 cells [1] is reported as “more limited effect”. Moreover, the cell cycle dynamics entry in the data set with MCF-7 cells [2] (MCF-7, 1 μM) is “No cell cycle perturbation”; in the data set on MCF-7 cells [2] (MCF-7, 10 μM) it was “slight but significant increase of G0/G1 population”. In addition, the “cells in G2/M” value in the data set on MCF-7 cells [2] is “clear increase of cells in G2/M”. Moreover, the “subG1 cells (possible apoptotic fraction)” value with MCF-7 cells [2] is given as “consistent increase of subG1 cells”. Besides, the “proliferative capacity (clonogenic survival)” value in the data set with MCF-7 cells [3] (irradiated) is “no significant effect”. Further, the “number of clones in sham-irradiated cells” value in the data set on MCF-7 cells [3] (MCF-7, sham-irradiated (not shown)) was “lower number of clones”. Moreover, the “CYP1A1 and AHRR transcript levels (AhR pathway genes)” value in data set [4] is listed as “induces the genes involved in AhR pathway”.

For `CCOC(=O)c1ccccc1C(=O)c1cccc(NS(=O)(=O)c2ccc(OC)cc2)c1` [RS5033], the “reduction of viable cells” value with MCF-7 cells [1] is reported as 20–35%. Also, in the data set on MCF-7 cells [2] (MCF-7, 10 μM and 30 μM), the “perturbation of cell cycle dynamics” value is “no significant perturbation”. Moreover, in the data set on MCF-7 cells [2], the “cells in G2/M” value is on record as “not observed” and the “subG1 cells (possible apoptotic fraction)” value is “not observed”. For the same compound, in the data set on MCF-7 cells [3] (3 Gy irradiation dose), the “proliferative capacity (clonogenic survival)” value was “slight but significant decrease”. In addition, in data set [4], the “CYP1A1 and AHRR transcript levels (AhR pathway genes)” value is listed as “only a slight increase”.

Values taken from article PMC6540222, “Small Molecule Inhibitors of KDM5 Histone Demethylases Increase the Radiosensitivity of Breast Cancer Cells Overexpressing JARID1B” (Molecules, 2019).
